Measured values published in patent US5599793A, “Antithromobotic agents” (Eli Lilly and Company, priority 1995, dated 1997).

Legend:
[1] = target: Human Thrombin (Homo sapiens, UniProt P00734); test: Inhibition of amidase activity of thrombin (Kass); assay type: biochemical; settings: apparent association constant, mean over a range of concentrations
Procedure: (§1) The assay is carried out by mixing 50 μL buffer (0.03M Tris, 0.15M NaCl, pH 7.4) with 25 μL of bovine thrombin or human thrombin solution (0.21 mg/mL of thrombostat bovine thrombin, Parke-Davis, or purified human thrombin, Enzyme Research Laboratories, South Bend, Ind., at about 8 NIH units/mL, in the same buffer) and 25 μL of test compound in a solvent (in 50% aqueous methanol, v:v). The 150 μL of an aqueous solution of the chromogenic substrate (at 0.25 mg/mL) are added and the rates of hydrolysis of the substrate are measured by monitoring the reactions at 405 nm for the release of p-nitroaniline. Standard curves are constructed by plotting free thrombin concentration against hydrolysis rate. The hydrolysis rates observed with test compounds are then converted to "free thrombin" values in the respective assays by use of the standard curves. The bound thrombin (bound to test compound) is calculated by subtracting the amount of free thrombin observed in each assay from the known initial amount of thrombin used in the assay. The amount of free inhibitor in each assay is calculated by subtracting the number of moles of bound thrombin from the number of moles of added inhibitor (test compound).
The Kass value is the hypothetical equilibrium constant for the reaction between thrombin and the test compound (I). [drawing 54]
(§2) Kass is calculated for a range of concentrations of test compounds and the mean value is reported in units of liter per mole.

[2] = target: T1, factor Xa (Homo sapiens, UniProt P00742); test: Serine protease selectivity, chromogenic substrate (Kass), factor Xa; assay type: biochemical; settings: substrate N-Benzoyl-Ile-Glu-Gly-Arg-p-nitroanilide
T1 construct: Human factors X, Xa, IXa, XIa, and XIIa are purchased; purchased Enzyme Research Laboratories, South Bend, Ind
Procedure: as §1, §2
(§3) By substantially following the procedures described above for human thrombin, and using other human blood coagulation system serine proteases and proteases of the fibrinolytic system with the appropriate chromogenic substrates, identified below, selectivity of the compounds of the present invention with respect to the coagulation factor serine proteases and with respect to the fibrinolytic system serine proteases are evaluated as well as their substantial lack of interference with serine proteases of the fibrinolytic system. Thrombin inhibitors preferably should spare fibrinolysis induced by urokinase, tissue plasminogen activator (t-PA) and streptokinase. This would be important to the therapeutic use of such agents as an adjunct to streptokinase, t-PA or urokinase thrombolytic therapy and to the use of such agents as an endogenous fibrinolysis-sparing (with respect to t-PA and urokinase) antithrombotic agent. In addition to the lack of interference with the amidase activity of the fibrinolytic proteases, such fibrinolytic system sparing can be studied by the use of human plasma clots and their lysis by the respective fibrinolytic plasminogen activators.
(§4) Human factors X, Xa, IXa, XIa, and XIIa are purchased from Enzyme Research Laboratories, South Bend, Ind.; human urokinase from Leo Pharmaceuticals, Denmark; and recombinant activated Protein C (aPC) is prepared at Eli Lilly and Co. substantially according to U.S. Pat. No. 4,981,952. Chromogenic substrates: N-Benzoyl-Ile-Glu-Gly-Arg-p-nitroanilide (for factor Xa); N-Cbz-D-Arg-Gly-Arg-p-nitroanilide (for factor IXa assay as the factor Xa substrate); Pyroglutamyl-Pro-Arg-p-nitroanilide (for Factor XIa and for aPC); H-D-Pro-Phe-Arg-p-nitroanilide (for factor XIIa); and Pyroglutamyl-Gly-Arg-p-nitroanilide (for urokinase); are purchased from KabiVitrum, Stockholm, Sweden, or from Midwest Biotech, Fishers, Ind. Bovine trypsin is purchased from Worthington Biochemicals, Freehold, N.J., and human plasma kallikrein from Kabi Vitrum, Stockholm, Sweden. Chromogenic substrate H-D-Pro-Phe-Arg-p-nitroanilide for plasma kallikrein is purchased from Kabi Vitrum, Stockholm, Sweden. N-Benzoyl-Phe-Val-Arg-p-nitroanilide, the substrate for human thrombin and for trypsin, is synthesized according to procedures described above for the compounds of the present invention, using known methods of peptide coupling from commercially available reactants or purchased from Midwest Biotech, Fishers, Ind.

[3] = target: T2, Trypsin (Bos taurus, UniProt P00760); test: Serine protease selectivity, chromogenic substrate (Kass), trypsin; assay type: biochemical, bovine; settings: substrate N-Benzoyl-Phe-Val-Arg-p-nitroanilide
T2 construct: Bovine trypsin is purchased; purchased Worthington Biochemicals, Freehold, N.J
T2 sequence (P00760 24-246): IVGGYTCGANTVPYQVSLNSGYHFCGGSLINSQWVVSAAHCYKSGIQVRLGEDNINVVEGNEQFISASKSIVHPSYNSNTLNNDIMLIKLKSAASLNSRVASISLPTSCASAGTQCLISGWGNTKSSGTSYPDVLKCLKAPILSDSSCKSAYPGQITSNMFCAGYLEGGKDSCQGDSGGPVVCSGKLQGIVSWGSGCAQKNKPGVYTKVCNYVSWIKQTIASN
Procedure: as §1, §2, §3, §4

[4] = target: T3, Plasmin (Homo sapiens, UniProt P00747); test: Serine protease selectivity, chromogenic substrate (Kass), plasmin; assay type: biochemical; settings: substrate H-D-Val-Leu-Lys-p-nitroanilide
T3 construct: Human plasmin is purchased; purchased Boehringer Mannheim, Indianapolis, Ind
Procedure: as §1, §2, §3
(§5) Human plasmin is purchased from Boehringer Mannheim, Indianapolis, Ind.; nt-PA is purchased as single chain activity reference from American Diagnostica, Greenwich, Conn.; modified-t-PA6 (mt-PA6) is prepared at Eli Lilly and Company by procedure known in the art (See, Burck, et al., J. Biol. Chem., 265, […] (1990). Plasmin chromogenic substrate H-D-Val-Leu-Lys-p-nitroanilide and tissue plasminogen activator (t-PA) substrate H-D-Ile-Pro-Arg-p-nitroanilide are purchased from Kabi Vitrum, Stockholm, Sweden.

[5] = tested on: Human plasma; test: Human plasma anticoagulation, thrombin time (TT); assay type: biochemical; settings: concentration required to double the thrombin time, linear extrapolation
Procedure: (§6) Dog plasma and rat plasma is obtained from conscious mixed-breed hounds (either sex, Hazelton-LRE, Kalamazoo, Mich., U.S.A.) or from anesthetized male Sprague-Dawley rats (Harlan Sprague-Dawley, Inc., Indianapolis, Ind., U.S.A.) by venipuncture into 3.8 percent citrate. Fibrinogen is prepared from in-date ACD human blood as the fraction I-2 according to previous procedures and specifications. Smith, Biochem. J., 185, 1-11 (1980); and Smith, et al., Biochemistry, 11, 2958-2967 (1972). Human fibrinogen is also purchased as 98 percent pure/plasmin free from American Diagnostica, Greenwich, Conn. Coagulation reagents ACTIN, Thromboplastin, and Human plasma are from Baxter Healthcare Corp., Dade Division, Miami, Fla. Bovine thrombin from Parke-Davis ([…], Mich.) is used for coagulation assays in plasma.
(§7) Coagulation assay procedures are as previously described. Smith, et al., Thrombosis Research, 50, 163-174 (1988). A CoAScreener coagulation instrument (American LABor, Inc.) is used for all coagulation assay measurements. The prothrombin time (PT) is measured by adding 0.05 mL saline and 0.05 mL Thromboplastin-C reagent to 0.05 mL test plasma. The activated partial thromboplastin time (APTT) is measured by incubation of 0.05 mL test plasma with 0.05 mL Actin reagent for 120 seconds followed by 0.05 mL CaCl2 (0.02M). The thrombin time (TT) is measured by adding 0.05 mL saline and 0.05 mL thrombin (10 NIH units/mL) to 0.05 mL test plasma. The compounds of formula I are added to human or animal plasma over a wide range of concentrations to determine prolongation effects on the APTT, PT, and TT assays. Linear extrapolations are performed to estimate the concentrations required to double the clotting time for each assay.

[6] = tested on: Human plasma; test: Human plasma anticoagulation, activated partial thromboplastin time (APTT); assay type: biochemical; settings: concentration required to double the APTT, linear extrapolation
Procedure: as §6, §7

[7] = tested on: Human plasma; test: Human plasma anticoagulation, prothrombin time (PT); assay type: biochemical; settings: concentration required to double the PT, linear extrapolation
Procedure: as §6, §7

[8] = target: T4, t-PA (Homo sapiens, UniProt P00750); test: Serine protease selectivity, chromogenic substrate (Kass), t-PA; assay type: biochemical; settings: substrate H-D-Ile-Pro-Arg-p-nitroanilide
T4 construct: purchased American Diagnostica, Greenwich, Conn
Procedure: as §1, §2, §3, §5

T3 sequence (P00747 581-810 limits assumed): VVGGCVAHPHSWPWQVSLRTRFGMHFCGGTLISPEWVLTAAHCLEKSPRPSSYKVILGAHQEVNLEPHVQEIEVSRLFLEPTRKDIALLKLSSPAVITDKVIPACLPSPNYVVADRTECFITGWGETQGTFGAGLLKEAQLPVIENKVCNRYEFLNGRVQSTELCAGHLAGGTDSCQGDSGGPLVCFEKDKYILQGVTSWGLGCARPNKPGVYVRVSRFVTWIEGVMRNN
T3 sequence (P00747 97-580 partner limits assumed): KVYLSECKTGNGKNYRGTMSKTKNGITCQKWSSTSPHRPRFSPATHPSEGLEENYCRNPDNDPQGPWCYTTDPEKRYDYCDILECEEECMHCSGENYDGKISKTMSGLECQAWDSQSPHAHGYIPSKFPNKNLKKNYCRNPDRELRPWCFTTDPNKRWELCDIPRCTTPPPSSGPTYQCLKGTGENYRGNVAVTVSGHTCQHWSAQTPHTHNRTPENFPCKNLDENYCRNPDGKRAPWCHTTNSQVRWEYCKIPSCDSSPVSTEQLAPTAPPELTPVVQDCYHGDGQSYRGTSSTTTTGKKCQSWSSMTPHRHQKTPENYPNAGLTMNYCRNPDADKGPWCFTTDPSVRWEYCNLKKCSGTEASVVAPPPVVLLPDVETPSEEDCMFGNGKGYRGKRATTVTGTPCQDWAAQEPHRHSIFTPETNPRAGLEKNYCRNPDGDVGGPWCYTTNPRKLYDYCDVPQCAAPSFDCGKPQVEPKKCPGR
T1 sequence (P00742 235-488 limits assumed): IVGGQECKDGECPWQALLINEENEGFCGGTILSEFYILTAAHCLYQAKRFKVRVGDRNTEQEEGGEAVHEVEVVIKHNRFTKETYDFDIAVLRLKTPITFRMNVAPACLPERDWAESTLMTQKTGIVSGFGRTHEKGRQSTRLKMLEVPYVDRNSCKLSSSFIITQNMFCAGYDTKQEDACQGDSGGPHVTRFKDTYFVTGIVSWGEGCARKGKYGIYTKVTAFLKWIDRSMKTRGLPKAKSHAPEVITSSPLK
T1 sequence (P00742 41-179 partner limits assumed): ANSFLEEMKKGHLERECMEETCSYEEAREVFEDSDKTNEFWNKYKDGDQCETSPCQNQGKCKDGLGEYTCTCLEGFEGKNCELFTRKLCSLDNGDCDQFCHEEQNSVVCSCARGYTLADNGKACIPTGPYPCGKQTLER
T4 sequence (P00750 36-562): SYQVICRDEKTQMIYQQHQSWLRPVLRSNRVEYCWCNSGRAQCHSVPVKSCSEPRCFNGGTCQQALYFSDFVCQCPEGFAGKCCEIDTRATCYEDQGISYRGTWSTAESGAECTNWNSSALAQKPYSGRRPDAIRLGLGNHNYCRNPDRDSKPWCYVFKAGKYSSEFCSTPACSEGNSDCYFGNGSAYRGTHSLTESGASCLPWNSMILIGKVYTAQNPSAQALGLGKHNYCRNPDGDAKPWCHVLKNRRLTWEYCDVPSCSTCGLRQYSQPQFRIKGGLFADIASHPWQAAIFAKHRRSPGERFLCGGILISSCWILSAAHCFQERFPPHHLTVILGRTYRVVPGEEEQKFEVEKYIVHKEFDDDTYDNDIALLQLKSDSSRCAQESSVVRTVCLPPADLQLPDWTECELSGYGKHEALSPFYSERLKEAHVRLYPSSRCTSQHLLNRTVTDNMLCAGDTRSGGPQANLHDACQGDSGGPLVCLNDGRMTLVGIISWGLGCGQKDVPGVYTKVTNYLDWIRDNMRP

Compound | Enzyme Kass, Human Thrombin [1] [L/mol × 10^6] | Enzyme Kass, Xa [2] [L/mol × 10^6] | Enzyme Kass, Trypsin [3] | Enzyme Kass, Plasmin [4] [L/mol × 10^6] | 2x Clotting time, TT [5] | 2x Clotting time, APTT [6] | 2x Clotting time, PT [7] | Enzyme Kass, t-PA [8] [L/mol × 10^6]
CC(C)CC[C@H]1C[C@@H](C(=O)N[C@H](C=O)CCCNC(=N)N)N(C(=O)C2NCCC3CCCCC32)C1.Cl.Cl (relative stereo) [Example 28, 1-Piq-Pro(4-cis-isoamyl)-ArgH.2 HCl] | 0.41 | 0.14 | 20.30 L/mol × 10^6 | 0.27 | 3,637 ng/mL | 22,727 ng/mL | 43,401 ng/mL | –
CCS(=O)(=O)N[C@H](C(=O)N1C[C@@H](Oc2ccccc2)C[C@H]1C(=O)N[C@H](C=O)CCCNC(=N)N)c1ccccc1.Cl (relative stereo) [Example 16, EtSO2 -L-Phg-Pro(4-cis-phenoxy)-ArgH.HCl] | 43 | 6.8 | 180 L/mol × 10^6 | 4.8 | 120 ng/mL | 2,400 ng/mL | 4,900 ng/mL | 0.26
Cl.Cl.N=C(N)NCCCC(C=O)NC(=O)C1CC2CCCCC2N1C(=O)C1CC2CCCCC2CN1 [Example 25, D-3-cis-Piq-cis-Ohi-ArgH.2 HCl] | 82 | 0.67 | 1,040 L/mol × 10^6 | 12.4 | 25 ng/mL | 548 ng/mL | 1,232 ng/mL | –
Cl.Cl.N=C(N)NCCC[C@@H](C=O)NC(=O)[C@@H]1C[C@H](c2ccccc2)CN1C(=O)[C@H]1CCCCN1 (relative stereo) [Example 6, D-hPro-Pro(4-cis-phenyl)-ArgH.2 HCl] | 2.9 | 5.7 | 240 L/mol × 10^6 | 5.3 | 340 ng/mL | 840 ng/mL | 4,100 ng/mL | 0.065
Cl.Cl.N=C(N)NCCC[C@@H](C=O)NC(=O)[C@@H]1C[C@H](Oc2ccc(C(=O)O)cc2)CN1C(=O)[C@H]1CCCCN1 (relative stereo) [Example 18, D-hPro-Pro(4-cis-(4-COOH-phenoxy))-ArgH.2 HCl] | 4.5 | 0.58 | 52.2 L/mol × 10^6 | 0.37 | 248 ng/mL | 5,969 ng/mL | 10,783 ng/mL | 0.013
CC(C)CC[C@H]1C[C@@H](C(=O)N[C@H](C=O)CCCNC(=N)N)N(C(=O)[C@H]2CC3CCCCC3CN2)C1.Cl.Cl (relative stereo) [Example 27, D-3-cis-Piq-Pro(4-cis-isoamyl)-ArgH.2 HCl] | 5.4 | 11.6 | 633 L/mol × 10^6 | 14.0 | 116 ng/mL | 395 ng/mL | 1,232 ng/mL | –
Cl.Cl.NC(N)=NCCCC(C=O)NC(=O)C1CC(Oc2ccccc2)CN1C(=O)C1CC2CCCCC2CN1 [Example 26, D-3-cis-Piq-Pro(4-cis-phenoxy)-ArgH.2 HCl] | 15.6 | 2.53 | 718 L/mol × 10^6 | 11.3 | 82 ng/mL | 392 ng/mL | 1,322 ng/mL | –
